Source: patent US20100092456A1, “METHODS OF TREATMENT” (priority 2006, published 2010)

Key:
MEL cells = assay: MEL cell viability and cell cycle profile; assay type: cell-based, Murine
Procedure: Ethanol fixed cells were incubated with prodium iodide (20 μg/ml) and RNAse (10 μg/ml) before cell cycle analysis by flow cytometry. Proteins were analysed by standard western blotting procedures employing the following antibodies: anti-tubulin and anti-flag (both from Sigma), anti-actin (Chemicon International), anti-histone 4 (Upstate Biotechnology), anti-phospho p54, anti-phospho p46, anti-phospho p38, total p54, total p46 and total p38 (all from Cell Signalling Technology) anti-ING2, anti EGFP (Clontech), anti-type II β PIP kinase, anti-GST and anti-myc (both generated in house).
To investigate the sub-nuclear localisation of UV-induced nuclear PtdInsPs, we fractionated nuclei to generate nucleoplasm (containing nuclear membranes and soluble nuclear material) and the chromatin enriched fraction (CEF) (FIG. 1c inset). […] Thus, the PtdInsP pool present in the CEF is a target for regulation in response to cellular stress.

[1] = test system: PtdIns4P and PtdIns5P in the CEF of MEL cells; assay: Mass assay of PtdIns4P and PtdIns5P in the CEF of MEL cells with or without UV irradiation; assay type: cell-based, Murine; settings: MEL cells preincubated with wortmannin (200 nM and 5 μM) or curcumin (100 μM); 200 J/m UV; CEF after 30 minutes
Procedure: D) MEL cells were preincubated with either vehicle (DMSO) or wortmannin (200 nM and 5 μM) were irradiated with 200 J/m of UV light. After 30 minutes the CEF was isolated and a mass assay was used to determine the levels of PtdIns4P and PtdIns5P (expressed as % of control non-irradiated cells. The results are calculated from 3 independent experiments).
E) MEL cells were preincubated with either vehicle (ethanol) or curcumin (100 μM) were irradiated with 200 J/m of UV irradiation. After 30 minutes the CEF was isolated and a mass assay was used to determine the levels of PtdIns4P and PtdIns5P (expressed as % of control, non curcumin-treated nor non UV-irradiated cells. The results are calculated from 3 independent experiments).
C) MEL cells were transiently transfected to express EGFP, EGFP-type II b PIP kinase and EGFP-IpgD/IpgE. In addition MEL cells were transfected with pSuper-IIβRNAi. […] A mass assay was used to determine the level of PtdIns5P (expressed as % of control non-irradiated cells. The results are calculated from 3 independent experiments). […]
MEL cells were washed, twice in ice cold PBS before their fractionation using a detergent-free hypotonic buffer. […] The protein content of all fractions was determined using the Bradford reagent (BioRad). PtdIns4P and PtdIns5P were measured using in vitro mass assays employing recombinant type I and type II PIP kinases, respectively. […]

ING2 = assay: Western blot of endogenous ING2 associated with the CEF of MEL cells; assay type: cell-based, Murine; settings: MEL cells; 200 J/m UV; NAC 5 mM 4 hours, wortmannin 200 nM and 5 μM, curcumin 100 μM
Procedure: FIG. 4. A) Exponentially growing MEL cells were irradiated with either 200 J/m of UV light or 10 Gy of gamma radiation. After 30 minutes the CEF was isolated and the subjected to SDS-PAGE followed by transfer of the separated proteins to a nitrocellulose membrane. Western blotting for endogenous ING2 and histone 4 proteins was performed. Representative western blots are shown. B) Exponentially growing MEL cells were incubated in the absence or presence of N-acetyl cysteine (NAC) (5 mM) for 4 hours prior to a control irradiation or exposed to 200 J/m of UV light before the isolation of the CEF. Differentiated MEL cells were incubated in the absence or presence of H2O2 (500 μM) for 15 minutes prior to the isolation of the CEF. Proteins in the CEF were subjected to SDS-PAGE followed by transfer to a nitrocellulose membrane. Western blotting for endogenous ING2 and histone 4 proteins was performed. Representative western blots are shown. C) MEL cells were preincubated with either vehicle, wortmannin (200 nM and 5 μM) or curcumin (100 μM) were irradiated with 200 J/m of UV light. After 30 minutes the CEF was isolated and proteins were subjected to SDS-PAGE followed by transfer to a nitrocellulose membrane. Western blotting for endogenous ING2 and histone 4 proteins was performed. Representative western blots are shown. D) The CEF from transiently transfected MEL cells with either pSuper or pSuper-IIβRNAi was prepared. Proteins in the CEF were subjected to SDS-PAGE followed by transfer to a nitrocellulose membrane. […] Proteins were analysed by standard western blotting procedures employing the following antibodies: anti-tubulin and anti-flag (both from Sigma), anti-actin (Chemicon International), anti-histone 4 (Upstate Biotechnology), anti-phospho p54, anti-phospho p46, anti-phospho p38, total p54, total p46 and total p38 (all from Cell Signalling Technology) anti-ING2, anti EGFP (Clontech), anti-type II β PIP kinase, anti-GST and anti-myc (both generated in house).

PIKfyve = PIKfyve (Homo sapiens, UniProt Q9Y2I7); settings: background statement; cited from earlier work
PIKfyve, sequence (Q9Y2I7 whole entry, species assumed): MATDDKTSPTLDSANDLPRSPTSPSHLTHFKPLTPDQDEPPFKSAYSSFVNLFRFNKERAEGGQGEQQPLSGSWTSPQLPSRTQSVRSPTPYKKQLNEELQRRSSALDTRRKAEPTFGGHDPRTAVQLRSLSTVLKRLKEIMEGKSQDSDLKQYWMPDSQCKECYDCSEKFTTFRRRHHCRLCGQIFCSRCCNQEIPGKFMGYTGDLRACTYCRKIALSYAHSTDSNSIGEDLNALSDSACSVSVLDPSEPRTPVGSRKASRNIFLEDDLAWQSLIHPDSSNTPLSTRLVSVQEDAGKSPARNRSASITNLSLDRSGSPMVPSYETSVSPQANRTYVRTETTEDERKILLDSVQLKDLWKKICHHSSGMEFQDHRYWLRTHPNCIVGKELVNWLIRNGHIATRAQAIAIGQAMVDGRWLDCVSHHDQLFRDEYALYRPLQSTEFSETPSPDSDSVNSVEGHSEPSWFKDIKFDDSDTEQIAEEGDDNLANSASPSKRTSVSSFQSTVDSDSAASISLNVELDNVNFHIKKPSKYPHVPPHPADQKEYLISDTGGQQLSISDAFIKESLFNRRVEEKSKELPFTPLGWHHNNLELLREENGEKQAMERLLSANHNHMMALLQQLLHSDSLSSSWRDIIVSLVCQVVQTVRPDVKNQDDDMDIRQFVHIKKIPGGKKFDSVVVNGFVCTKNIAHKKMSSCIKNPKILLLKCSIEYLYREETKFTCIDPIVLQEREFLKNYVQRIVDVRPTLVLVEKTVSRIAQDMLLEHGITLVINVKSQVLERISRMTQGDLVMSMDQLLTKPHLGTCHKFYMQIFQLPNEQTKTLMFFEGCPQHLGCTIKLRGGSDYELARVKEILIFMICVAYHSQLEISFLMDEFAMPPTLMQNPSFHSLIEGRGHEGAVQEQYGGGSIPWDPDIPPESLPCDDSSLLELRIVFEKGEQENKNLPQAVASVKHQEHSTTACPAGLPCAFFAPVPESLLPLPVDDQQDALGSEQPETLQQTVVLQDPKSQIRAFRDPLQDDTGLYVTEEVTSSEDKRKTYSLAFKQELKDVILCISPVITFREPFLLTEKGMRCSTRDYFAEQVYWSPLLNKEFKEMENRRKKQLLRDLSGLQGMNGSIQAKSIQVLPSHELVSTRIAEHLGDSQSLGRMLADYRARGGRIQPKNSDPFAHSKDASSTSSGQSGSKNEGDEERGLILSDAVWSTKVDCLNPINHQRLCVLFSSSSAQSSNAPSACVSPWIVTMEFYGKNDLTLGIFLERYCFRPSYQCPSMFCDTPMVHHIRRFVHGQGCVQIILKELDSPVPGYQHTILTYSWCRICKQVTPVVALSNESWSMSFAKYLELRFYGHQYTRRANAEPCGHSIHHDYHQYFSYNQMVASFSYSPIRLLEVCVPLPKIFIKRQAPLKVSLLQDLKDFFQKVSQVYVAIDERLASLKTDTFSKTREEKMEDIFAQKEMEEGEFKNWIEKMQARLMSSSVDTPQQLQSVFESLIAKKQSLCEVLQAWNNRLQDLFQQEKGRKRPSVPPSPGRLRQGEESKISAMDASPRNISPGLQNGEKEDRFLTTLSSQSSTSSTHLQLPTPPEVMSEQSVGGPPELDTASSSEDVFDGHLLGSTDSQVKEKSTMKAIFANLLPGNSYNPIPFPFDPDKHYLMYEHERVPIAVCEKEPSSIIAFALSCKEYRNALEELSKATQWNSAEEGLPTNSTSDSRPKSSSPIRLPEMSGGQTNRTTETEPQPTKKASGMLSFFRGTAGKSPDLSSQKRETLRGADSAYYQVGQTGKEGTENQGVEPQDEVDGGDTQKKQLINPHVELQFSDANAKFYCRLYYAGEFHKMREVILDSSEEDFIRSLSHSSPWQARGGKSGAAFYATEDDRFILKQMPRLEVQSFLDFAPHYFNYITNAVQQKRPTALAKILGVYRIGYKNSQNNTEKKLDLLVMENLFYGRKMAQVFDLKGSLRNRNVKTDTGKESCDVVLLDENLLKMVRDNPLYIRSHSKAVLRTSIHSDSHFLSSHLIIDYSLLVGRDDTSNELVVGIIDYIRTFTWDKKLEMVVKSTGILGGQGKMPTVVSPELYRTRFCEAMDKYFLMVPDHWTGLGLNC

COc1cc(/C=C/C(=O)CC(=O)/C=C/c2ccc(O)c(OC)c2)ccc1O [curcumin]
effect on MEL cell viability (MEL cells): no effect
effect on the cell cycle profile (MEL cells; MEL cells, compound alone): no effect
UV light-induced accumulation of PtdIns4P [1]: inhibited
UV light-induced accumulation of PtdIns5P [1]: inhibited
UV-induced translocation of endogenous ING2 to the CEF (ING2): completely inhibited
inhibition of PIKfyve (PIKfyve): able to inhibit
